Experimental data: PubChem BioAssay (NCI)
Values joined by “and” are separate entries in the source; they are usually repeats but may differ in a detail not shown here. Identical values can stand only once.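 Values below derive from 48-hour exposures of cells grown in 96-well plates, with endpoints linearly interpolated between the two concentrations bracketing the appropriate inhibition level. GI50: concentration for 50% inhibition of growth. TGI is the concentration that stops growth completely.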

Tests used:
Test in all cases: NCI-60 cell line screen, 48 h
HL-60(TB) leukemia = test system: HL-60(TB) leukemia
HOP-62 NSCLC = test system: HOP-62 NSCLC
KM12 colon = test system: KM12 colon
MDA-MB-231 breast = test system: MDA-MB-231 breast
NCI-H522 lung = test system: NCI-H522 lung
SF-295 CNS = test system: SF-295 CNS
SK-MEL-2 melanoma = test system: SK-MEL-2 melanoma
SK-MEL-5 melanoma = test system: SK-MEL-5 melanoma
SK-OV-3 ovarian = test system: SK-OV-3 ovarian
MALME-3M melanoma = test system: MALME-3M melanoma

COc1ccc(NC(=O)c2ccc(NC3=C(Cl)C(=O)N(Cc4ccccc4)C3=O)cc2)cc1
GI50 (HL-60(TB) leukemia): 2.16 µM
GI50 (HOP-62 NSCLC): 17.1 µM
TGI (HOP-62 NSCLC): 32.6 µM
GI50 (KM12 colon): 16.8 µM
TGI (KM12 colon): 38.2 µM
GI50 (MDA-MB-231 breast): 11.9 µM
TGI (MDA-MB-231 breast): 26.2 µM
GI50 (NCI-H522 lung): 3.3 µM
TGI (NCI-H522 lung): 13.8 µM
GI50 (SF-295 CNS): 3.52 µM
TGI (SF-295 CNS): 10.4 µM
GI50 (SK-MEL-2 melanoma): 10.4 µM
TGI (SK-MEL-2 melanoma): 56.1 µM
GI50 (SK-MEL-5 melanoma): 10 µM
TGI (SK-MEL-5 melanoma): 32.1 µM
GI50 (SK-OV-3 ovarian): 18.4 µM
TGI (SK-OV-3 ovarian): 36.2 µM

Clc1ccc(Cl)c(N/N=C\c2c[nH]c3ccccc23)c1
GI50 (HOP-62 NSCLC): 15.2 µM
TGI (HOP-62 NSCLC): 28.4 µM
GI50 (KM12 colon): 7.45 µM
TGI (KM12 colon): 26.3 µM
GI50 (MALME-3M melanoma): 20.3 µM
TGI (MALME-3M melanoma): 39.8 µM
GI50 (MDA-MB-231 breast): 2.05 µM
TGI (MDA-MB-231 breast): 8.07 µM
GI50 (NCI-H522 lung): 1.78 µM
TGI (NCI-H522 lung): 14.8 µM
GI50 (SF-295 CNS): 13.8 µM
TGI (SF-295 CNS): 70.4 µM
GI50 (SK-MEL-2 melanoma): 13.1 µM
TGI (SK-MEL-2 melanoma): 26.7 µM
GI50 (SK-MEL-5 melanoma): 10 µM
TGI (SK-MEL-5 melanoma): 23.1 µM
GI50 (SK-OV-3 ovarian): 12.8 µM
TGI (SK-OV-3 ovarian): 27.2 µM

COc1ccc(NC(=O)CC/C(CC(=O)c2ccco2)=N/Nc2ccc([N+](=O)[O-])cc2[N+](=O)[O-])cc1
TGI (HL-60(TB) leukemia): 88.8 µM
TGI (HOP-62 NSCLC): > 100 µM
TGI (KM12 colon): > 100 µM
TGI (MALME-3M melanoma): > 100 µM
TGI (NCI-H522 lung): > 100 µM
TGI (SF-295 CNS): > 100 µM
TGI (SK-MEL-2 melanoma): > 100 µM
TGI (SK-MEL-5 melanoma): > 100 µM
TGI (SK-OV-3 ovarian): > 100 µM

C=CCCc1cc(OC)ccc1CN(C)C(C)(C)CO
TGI (HOP-62 NSCLC): > 100 µM
TGI (KM12 colon): > 100 µM
TGI (MALME-3M melanoma): > 100 µM
TGI (SF-295 CNS): > 100 µM
TGI (SK-MEL-2 melanoma): > 100 µM
TGI (SK-MEL-5 melanoma): > 100 µM

O=c1[nH]nc(-c2ccccc2)c(-c2ccccc2)c1-n1nc(-c2ccccc2)c2ccccc2c1=O
TGI (HOP-62 NSCLC): > 100 µM
TGI (KM12 colon): > 100 µM
TGI (MALME-3M melanoma): > 100 µM
TGI (NCI-H522 lung): > 100 µM
TGI (SF-295 CNS): > 100 µM
TGI (SK-MEL-2 melanoma): > 100 µM
TGI (SK-MEL-5 melanoma): > 100 µM
TGI (SK-OV-3 ovarian): > 100 µM

O=C(Nc1ccc(Cl)cc1)NS(=O)(=O)c1ccc2c(c1)CCC2
GI50 (HL-60(TB) leukemia): 24.1 µg/mL
TGI (HL-60(TB) leukemia): > 78.2 µM and 65.8 µg/mL
TGI (HOP-62 NSCLC): > 100 µM
GI50 (KM12 colon): 19.1 µg/mL
TGI (KM12 colon): 98.9 µM and 40.2 µg/mL
GI50 (MALME-3M melanoma): 13.7 µg/mL
TGI (MALME-3M melanoma): > 71.3 µM and 38.2 µg/mL
GI50 (NCI-H522 lung): 4.86 µg/mL
TGI (NCI-H522 lung): 94.1 µM and 12.5 µg/mL
GI50 (SF-295 CNS): 12 µg/mL
TGI (SF-295 CNS): > 100 µM and 31.9 µg/mL
GI50 (SK-MEL-2 melanoma): 21.6 µg/mL
TGI (SK-MEL-2 melanoma): > 100 µM and 48.6 µg/mL
GI50 (SK-MEL-5 melanoma): 20.6 µg/mL
TGI (SK-MEL-5 melanoma): > 74 µM and 40 µg/mL
GI50 (SK-OV-3 ovarian): 18 µg/mL
TGI (SK-OV-3 ovarian): 86.1 µM and 41.9 µg/mL

C=C1C(=O)OC2C1C(OC(=O)/C(=C/C)COC(C)=O)CC1(CO1)C1C(OC(=O)/C(=C/C)CO)C=C(C)C21 (stereo not drawn)
TGI (HL-60(TB) leukemia): 2.34 µM
TGI (KM12 colon): 15.3 µM
TGI (MALME-3M melanoma): 3.32 µM
TGI (SF-295 CNS): 20.8 µM
TGI (SK-MEL-2 melanoma): 3.63 µM
TGI (SK-MEL-5 melanoma): 5.05 µM
TGI (SK-OV-3 ovarian): 31.3 µM

CC(=O)OC1COC(N2C(=O)C(=O)c3c(C)cc(Cl)nc32)C(OC(C)=O)C1OC(C)=O (stereo not drawn)
TGI (HL-60(TB) leukemia): > 100 µM
TGI (HOP-62 NSCLC): > 100 µM
TGI (KM12 colon): > 100 µM
TGI (MALME-3M melanoma): > 100 µM
TGI (SF-295 CNS): > 100 µM
TGI (SK-MEL-2 melanoma): > 100 µM
TGI (SK-MEL-5 melanoma): > 100 µM

O=c1c(Cl)nsnc1Cl
TGI (HOP-62 NSCLC): 34.5 µM
TGI (KM12 colon): > 57.8 µM
TGI (MALME-3M melanoma): 84.5 µM
TGI (MDA-MB-231 breast): 41.8 µM
TGI (NCI-H522 lung): 3.81 µM
TGI (SF-295 CNS): 40.8 µM
TGI (SK-MEL-2 melanoma): > 100 µM
TGI (SK-MEL-5 melanoma): 32.8 µM
TGI (SK-OV-3 ovarian): 35 µM
